One compound from patent publication US20100092402A1, “TREATMENT OF RESPIRATORY DISEASE” (Mucokinetica Ltd., priority 2007, published 2010) can be followed below.

The test deals with T1, epithelial amiloride-sensitive sodium channel (ENaC) (Homo sapiens, UniProt P37088+P51168+P51170).
T1 sequence (P37088 1-669): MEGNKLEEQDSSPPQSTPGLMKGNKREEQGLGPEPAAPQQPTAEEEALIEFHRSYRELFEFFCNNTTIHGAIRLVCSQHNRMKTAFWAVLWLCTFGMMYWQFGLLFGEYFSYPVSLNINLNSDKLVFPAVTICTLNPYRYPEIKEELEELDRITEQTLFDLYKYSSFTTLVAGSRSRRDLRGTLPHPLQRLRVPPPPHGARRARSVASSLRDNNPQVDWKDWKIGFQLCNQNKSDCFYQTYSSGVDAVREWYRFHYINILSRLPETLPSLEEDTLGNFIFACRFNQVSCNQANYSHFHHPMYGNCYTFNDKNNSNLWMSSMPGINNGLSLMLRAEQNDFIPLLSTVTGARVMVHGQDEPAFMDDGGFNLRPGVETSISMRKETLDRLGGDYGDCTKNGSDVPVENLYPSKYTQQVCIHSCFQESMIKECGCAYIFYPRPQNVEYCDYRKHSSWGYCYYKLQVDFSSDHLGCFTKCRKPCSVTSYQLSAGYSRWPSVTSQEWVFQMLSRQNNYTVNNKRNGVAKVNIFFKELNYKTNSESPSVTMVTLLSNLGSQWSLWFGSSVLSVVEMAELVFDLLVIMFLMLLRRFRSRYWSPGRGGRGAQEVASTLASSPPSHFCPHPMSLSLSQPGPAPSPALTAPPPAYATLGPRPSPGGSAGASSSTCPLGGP
T1 sequence (P51168 1-640): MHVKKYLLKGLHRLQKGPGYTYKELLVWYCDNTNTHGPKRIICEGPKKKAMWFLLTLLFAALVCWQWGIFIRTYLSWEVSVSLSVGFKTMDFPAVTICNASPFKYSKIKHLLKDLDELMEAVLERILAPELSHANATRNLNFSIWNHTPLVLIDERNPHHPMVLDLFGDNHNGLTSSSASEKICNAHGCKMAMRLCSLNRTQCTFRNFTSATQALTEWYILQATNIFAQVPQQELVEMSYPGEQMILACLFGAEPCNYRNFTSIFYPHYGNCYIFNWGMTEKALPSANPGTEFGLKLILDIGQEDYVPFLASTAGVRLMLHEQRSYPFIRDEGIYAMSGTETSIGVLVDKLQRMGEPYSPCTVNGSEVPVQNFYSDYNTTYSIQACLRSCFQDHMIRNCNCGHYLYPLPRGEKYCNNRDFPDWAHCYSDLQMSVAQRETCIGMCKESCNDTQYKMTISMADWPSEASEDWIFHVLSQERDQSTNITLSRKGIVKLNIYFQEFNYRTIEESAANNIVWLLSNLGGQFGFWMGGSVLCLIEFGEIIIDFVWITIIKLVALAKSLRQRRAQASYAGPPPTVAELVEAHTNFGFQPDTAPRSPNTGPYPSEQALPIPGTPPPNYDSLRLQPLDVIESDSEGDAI
T1 sequence (P51170 1-649): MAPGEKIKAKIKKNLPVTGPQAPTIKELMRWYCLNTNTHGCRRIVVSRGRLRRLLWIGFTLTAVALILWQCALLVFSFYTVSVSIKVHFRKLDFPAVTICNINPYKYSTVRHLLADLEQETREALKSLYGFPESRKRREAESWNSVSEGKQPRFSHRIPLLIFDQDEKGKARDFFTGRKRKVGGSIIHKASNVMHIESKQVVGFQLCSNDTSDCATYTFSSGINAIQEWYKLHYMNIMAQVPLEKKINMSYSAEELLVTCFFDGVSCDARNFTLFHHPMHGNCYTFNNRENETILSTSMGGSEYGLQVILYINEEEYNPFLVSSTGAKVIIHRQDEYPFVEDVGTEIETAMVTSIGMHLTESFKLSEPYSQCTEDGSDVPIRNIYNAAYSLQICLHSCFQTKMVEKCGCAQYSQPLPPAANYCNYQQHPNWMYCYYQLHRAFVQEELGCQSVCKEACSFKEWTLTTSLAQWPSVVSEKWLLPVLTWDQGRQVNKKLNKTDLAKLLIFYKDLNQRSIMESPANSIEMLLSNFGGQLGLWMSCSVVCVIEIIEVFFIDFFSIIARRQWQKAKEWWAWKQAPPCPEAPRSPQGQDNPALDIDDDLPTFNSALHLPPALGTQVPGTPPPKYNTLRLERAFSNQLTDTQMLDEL
It is filed as cell-based. As to conditions: for average baseline Isc slope in initial recording period: control slope +0.04. On the procedure: Human bronchial epithelial (HBE) cells were purchased from Cambrex Bioscience Ltd, UK., and were stored frozen in liquid nitrogen until required for use.
HBE cells were amplified by growing in secondary culture according to the suppliers' instructions. Cells were seeded at densities of between 3,000 to 4,000/cm^2 in plastic T-25 culture flasks in bronchial epithelial cell growth medium (BEGM) prepared from bronchial epithelial basal medium (BEBM, Cambrex, UK) supplemented with bovine pituitary extract, hydrocortisone, human epidermal growth factor, epinephrine, transferrin, insulin, retinoic acid, triiodothyronine, gentamicin, and amphotericin B. Cultures were maintained at 37° C. in 5% CO2 in a humidified incubator. Medium was changed every 1 to 3 days until cells were approximately 90% confluent. Cells were then passaged with trypsin EDTA according to the suppliers' instructions, and either used for further cell cultures, or cryopreserved in liquid nitrogen in BEGM containing 10% foetal bovine serum and 10% DMSO.
HBE cells were prepared for electrophysiology studies by growing as tertiary cultures on Snapwell (Corning) 0.4μ clear polyester membrane inserts 1.2 cm^2 coated with collagen IV (Sigma). Cells were seeded at approximately 10^5/cm^2 in 0.5 ml 1:1 DMEM (Cambrex, UK) BEGM containing bovine pituitary extract (50 μg/ml), hydrocortisone (0.5 μg/ml), human epidermal growth factor (0.5 ng/ml), epinephrine (0.5 μg/ml), transferrin (10 μg/ml), insulin (5 μg/ml), retinoic acid (50 nM), and gentamicin (50 μg/ml) (Danahay medium; Danahay et al. 2002). Snapwell inserts were mounted in 6-well plates with 3 ml Danahay medium in the wells, and grown at 37° C. in 5% CO2 in a humidified incubator. Medium was changed every 1 to 3 days. An apical air-liquid interface (ALI) was established as the cells achieved confluence (3 to 6 days) by removal of medium from the centre of the insert. Confluent differentiated bronchial epithelial cells were used for electrophysiology studies at between 15 and 29 days after establishing ALI.
Differentiated HBE cells grown to confluence at an air-liquid interface for 15 to 29 days were used to study substances for ability to achieve long duration down regulation of the epithelial amiloride-sensitive sodium channel (ENaC).
Step 1: Treatment with substance. For each group of cells treated with a substance, 30 μl of 100 times final concentration of substance was added to the 3 ml basolateral culture medium, mixed and 150 μl of the resultant basolateral fluid was transferred to the apical surface for 5 min. For non-treatment control groups of basolateral fluid with no added substance was transferred to the apical surface. After 5 min. equilibration the excess apical fluid was then transferred back to the basolateral side of the culture well.
Step 2: Variable period of incubation with the substance. Dependent on the individual experiment the cells were returned to the 37° C. incubator for periods of 0 min. to 120 min.
Step 3: Period of substance washout with fresh culture medium. For experiments to study the duration of a substance response the HBE cells on Snapwell inserts were washed with fresh culture medium (no added substance) at 37° C. and placed in fresh 6-well plates containing 3 ml fresh culture medium (no added substance) on the basolateral side. […] Step 3 was omitted in studies where the duration of the substance response was not investigated.
Step 4: Wash with Krebs-Ringer buffer and assembly in Ussing chambers. The Snapwell insert cultures of HBE cells were removed from the 6-well plates and washed with excess Krebs-Ringer buffer (120 mM-NaCl, 25 mM-NaHCO3, 3.3 mM-KH2PO4, 0.8 mM-K2HPO4, 1.2 mM-CaCl2, 1.2 mM-MgCl2, 10 mM-glucose) pH7.4 at 37° C. The inserts were then mounted in Ussing chambers (Snapwell diffusion chambers, Costar UK Ltd.). Each side of the chamber was filled with 5 ml Krebs-Ringer buffer and gassed continuously with 95% O2/5% CO2 at 37° C. […]

Where [1] appears, read: down regulation of ENaC activity.

Read-outs that look alike come from different tables or passages of the source.

As for `N=C(N)c1ccc2cc(OC(=O)c3ccc(N=C(N)N)cc3)ccc2c1` [6-amidino-2-napthyl 4-guanidinobenzoate], the “average baseline Isc slope in initial recording period” value (1 μM 60 min, 3 h 00 min washout, FIG. 7D) is recorded as “+0.93 μAmp/min”. In addition, under “1 μM 60 min, 4 h 30 min washout, FIG. 7E”, the “average baseline Isc slope in initial recording period” value is listed as “+0.60 μAmp/min”. Also, for the setting “1 μM 60 min, then 4 h 30 min culture medium washout”, the “amiloride ΔIsc compared to control” value is recorded as “not significantly different”. Also, for the setting “3 h 00 min in fresh culture, first 15 minutes of recording, FIGS. 7D and 7A”, the “slope of rising baseline short circuit current relative to untreated controls” value is “over 20 times”. For the same compound, under setting [1], the “time to half maximal inhibition (onset)” value is not above 5 min and the “time to maximum down regulation (onset)” value was not above 30 min.
